Measurements published in patent US20070026090A1, “Treatment and prevention of inflammatory disease and mitochondrial dysfunction with high dose selenium” (priority 2003, published 2007).
Entries after “also recorded” stand apart in the source; their conditions may differ. Read-outs that look alike come from different tables or passages of the source.

Tests used:
MnSOD = MnSOD transcription and expression (RTPCR, Western blot); format: cell-based, murine
Description: Cell culture: Murine J774.2 macrophages (kindly provided by Prof. Dov Zipori from the Weizmann Institute of Science) were grown in RPMI medium supplemented with 10% (w/v) fetal calf serum, penicillin (100 U/ml), streptomycin (100 μg/ml) and 1× glutamine at 37° C. in a humidified atmosphere consisting of 95% air and 5% CO2. Experiments were performed on cells at 60% confluence.
(§1) Western blots (Sp1, MnSOD, UCP2): Cells were grown in six-well tissue culture plates, treated with selenium for 72 h and activated with LPS and IFN-γ for 24 h. The wells were washed with PBS, scraped and centrifuged
(§2) (5 min. 2000 RPM), and lysed by addition of boiling hot lysis buffer (1% SDS, 1 mM sodium ortho-vanadate, 10 mM Tris pH 7.4) to the pellets. Protein content was measured (BIO RAD protein assay kit) and equalized. Sample buffer (containg SDS) was added and the samples were boiled. The samples were subjected to SDS-PAGE followed by western blot analysis. Separated proteins were transferred electrophoretically from the gel to a nitrocellulose membrane (Amersham International plc, Buckinghamshire, ENGLAND). The membrane was blocked in TBS (0.15 M NaCl/10 mM Tris/HCl, pH7.4) containing 5% (v/v) skimmed milk (Blotto), then incubated over night with primary antibodies at RT (diluted 1/2000 in blotto). After being washed six times in TBST [TBS containing 0.05% (v/v) Tween 20], the membrane was incubated for 2 h at room temperature with secondary antibody (diluted 1/5000 in blotto). Immunoreactive bands were detected with ECL western blotting detection reagents (Amersham Pharmacia Biotech, Buckingammshire England) and developed on film (Fuji super RX, Dusseldorf, Germany). […]
Right (antisense) 5′[…]-3′ (SEQ ID NO: 6) corresponding to nucleotides 622 to 640 of mouse mRNA region (GenBank Accession No. NM 013671). […] Actual PCR product was approximately 570 bp, measured on 1.25% agarose gel in TAE containing ethidium bromide.
PCR was performed with 28 cycles (25 cycles for GAPDH) of 30 seconds at 96° C., 30 seconds at 58° C. and 1 min at 72° C. RTPCR products were analyzed on 1.3% (w/v) agarose gels.

[1] = tested on: mitochondrial DNA (D-loop region); assay: Mitochondrial DNA analysis in the colon (D-loop PCR); format: in vivo, rat
Description: Mitochondrial DNA analysis in the colon: Tissue content of mitochondrial DNA was determined using specific primers for the D-loop region in the mitochondrial DNA. Mitochondrial colon tissue genomic DNA, was prepared using the Promega Wizard Genomic DNA Purification Kit (Promega Corp, Madison, Wis.). Mitochondrial DNA was amplified by the PCR reaction: Twenty cycles were used for the amplification with 25 ng total tissue DNA as template. Saturation in intensity of PCR products was observed after 24 cycles.
Primers: Left (sense) 5′-[…]-3′ (SEQ ID NO:1), corresponding to nucleotides 468 to 489 of rat mitochondrial D-loop region DNA (GenBank Accession No. X52757.1).
Right (antisense) 5′-[…]-3′ (SEQ ID NO:2) corresponding to nucleotides 988 to 967 of rat mitochondrial D-loop DNA (GenBank Accession No. X52757.1).
The expected PCR product was 520 bp. Actual PCR product was approximately 520 bp, measured on 1.25% agarose gel in TAE containing ethidium bromide.

[2] = tested on: myeloperoxidase (MPO) activity; assay: Tissue inflammation: myeloperoxidase activity in colon tissue; format: in vivo, rat; conditions: supplemented rats, 24 h after TNBS; unsupplemented rats greater than 30-fold
Description: Tissue inflammation-Myeloperoxidase activity: Colonic tissue samples (approximately 100-120 mg) were collected 4 cm proximal to the anus. Each tissue sample was homogenized in a solution containing 0.5% hexa-decyl-trimethyl-ammonium bromide (HTAB) (Sigma-Aldrich Corp, St. Louis, Mo.) buffer (0.5% HTAB in 50 mM phosphate buffer, pH 6.0). Tissue samples were minced in a test tube containing 1 ml of HTAB buffer on ice and homogenized with a Polytron tissue homogenizer (Brinkmann Instruments, Inc, Westbury N.Y., USA). The pooled homogenates and washes were sonicated in water for 20 seconds. After three cycles of freeze-thawing, the sonicated samples were centrifuged in cold for 15 min. at 40,000×g. Myeloperoxidase activity (MPO) was assayed in the supernatant as described by Krawisz (Krawisz et al., 1984) after addition of O-dianizidine-HCl (Sigma-Aldrich Corp, St Louis, Mo.) and 0.15% (v/v) H2O2 as a substrate for the MPO. The rate of change in absorbance was measured spectrophotometrically at 460 nm, and is expressed as the amount of enzyme necessary to produce a change in absorbance of 1.0 unit per minute (1 unit) per gram wet weight tissue.

Sp1 = Sp1 protein (Western blot); format: cell-based, murine; conditions: FIG. 13B
Description: as §1, §2

[3] = Cell viability (PI exclusion, flow cytometry); format: cell-based, murine; conditions: mouse, J774.2 macrophages, 10 μM, 24 hour exposure
Description: (§3) Experiments were performed on cells at 60% confluence.
(§4) Determination of cell viability: Cell-membrane integrity was detected by flow cytometer (FACSort, Becton Dickenson and Co., San Jose, Calif. USA) as a measurement of cell viability. For this assay, the nonpermeant DNA-intercalating dye propidium iodide (PI), which is excluded by viable cells, was used. Fluorescence settings were excitation at 488 nm and emission at 575 nm. Data were collected from at least 10,000 cells.

J774.2 macrophages = assay: Cell viability (PI exclusion, flow cytometry); format: cell-based, murine; conditions: 10 μM, activated cells
Description: as §3, §4

SMILES: [Se] [selenium]
- lowest concentration effective in significantly reducing MnSOD transcripts and protein (MnSOD; 24 and 72 hours, resting J774.2 (FIG. 9A, 9B)): 0.5 µM
- MnSOD expression, activated macrophages (MnSOD; exposure (72 hours) prior to activation, concentration dependent (FIG. 11)): decreased
- mitochondrial DNA in colon tissue, colitis-induced rats ([1]; 24 h after TNBS, supplemented vs unsupplemented (FIG. 6)): intact mitochondrial DNA; also recorded: protects against the loss
- mitochondrial DNA in colon tissue, uninduced rats ([1]; TNBS−, Se suppl+ (FIG. 6)): No change
- myeloperoxidase elevation following hapten administration, compared to uninduced controls [2]: approximately 5 fold
- Sp-1 gene expression / synthesis (Western blot) (Sp1): no change
- cytotoxicity at 24 h, 10 μM ([3]; LPS + INFγ activated (FIG. 14A column c), read-out: decrease in viability, activated cells): ≤ 50%
- cytotoxicity at 24 h, 10 μM ([3]; not activated, read-out: decrease in viability, control cells): 60%
- cell survival, simultaneous selenium exposure and activation (J774.2 macrophages; from 75% without selenium (FIG. 14A)): 35%
- cell survival, selenium following activation by 24 hours (J774.2 macrophages; from 75% without selenium (FIG. 14B)): 55%
